How the values were obtained:
Type in all cases: cell-based
[1] = test system: translocation of the LC3 protein in Hela GFP-LC3 cells; assay: Translocation of the LC3 protein in Hela human cells measured by image analysis cytometry (test C, autophagy); settings: EBSS + 10 μM hydroxychloroquine, cells with LC3 granulations, absolute IC50
Method: Inhibitory activity of the molecules on autophagy is measured by means of the translocation of the LC3 protein from the cytoplasm to the autophagosomes. For this, Hela cells were transfected with a vector encoding the chimeric protein GFP-LC3. A Hela clone stably expressing the GFP-LC3 protein was selected.
Study of the Translocation of the LC3 Protein in Hela Human Cells, Measured by Image Analysis Cytometry (Test C):
(§1) On day 1, the Hela GFP-LC3 cells are seeded into 96-well plates coated with poly-D-lysine (Greiner, #655946) at the concentration of 15000 cells/well in 200 μl of DMEM medium (DMEM Gibco #11960-044) containing 10% of foetal calf serum (FCS Gibco, #10500-056) and 1% glutamine (L-Glu Gibco #25030-024), and incubated at 37° C., 5% CO2, overnight.
On day 2, the cells are washed twice with EBSS (Sigma #E3024). The cells are then incubated in EBSS, 10 μM hydroxychloroquine and test products, for 2 hours at 37° C. in the presence of 5% CO2. The molecules are diluted in dimethyl sulphoxide (DMSO Sigma #D2650), the final DMSO percentage being 0.1%. The molecules are tested at increasing concentrations in a range that can extend from 10 nM to 1 μM.
After this incubation, the cells are fixed with 4% paraformaldehyde (Sigma #HT501128 4L) for 10 min. The cells are then washed twice with PBS and the nuclei then stained with 2 μg/ml of Hoechst 33342 (Invitrogen #H3570). The 96-well plates are then read with the iCyte image analysis cytometer (Compucyte).
The activity of the product is translated to IC50, obtained from a dose-response curve of various concentrations tested and representing the dose giving 50% specific inhibition (absolute IC50). 2 independent experiments make it possible to calculate the mean of the IC50 values.

[2] = test system: AKT protein phosphorylated on serine 473 (P-AKT-S473) in PC3 human prostate carcinoma cells; assay: pAKT expression in PC3 human prostate carcinoma cells measured by MSD Multi-spot Biomarker detection (test B); settings: MSD sandwich immunoassay, 1 to 2 h incubation, absolute IC50
Method: The inhibitory activity of the molecules on AKT phosphorylation is measured either by western blotting using the technique described below, or by the MSD Multi-spot Biomarker detection technique from Meso Scale Discovery also described below.
Study of pAKT Expression in PC3 Human Prostate Carcinoma Cells Measured by the MSD Multi-Spot Biomarker Detection Technique from Meso Scale Discovery (Test B):
This test is based on measuring the expression of the AKT protein phosphorylated on serine 473 (P-AKT-S473), in the PC3 human prostate carcinoma line, by means of the technique based on a sandwich immunoassay using the MSD Multi-spot Biomarker Detection kit from Meso Scale Discovery: phospho-Akt (Ser473) whole cell lysate kit (#K151CAD) or phospho-Akt (Ser473)/Total Akt whole cell lysate kit (#K151OOD). The primary antibody specific for P-AKT-S473 (Kit #K151CAD) is coated onto an electrode in each well of the 96-well plates of the MSD kit: after the addition of a protein lysate to each well, the signal is visualised by adding a secondary detection antibody labelled with an electrochemoluminescent compound. The procedure followed is that described in the kit.
as §1, with “PC3” for “Hela GFP-LC3”, “(TPP, #92096)” for “coated with poly-D-lysine (Greiner, #655946)”, “35 000” for “15000”
On day 2, the cells are incubated in the presence or absence of the test products for 1 to 2 h at 37° C. in the presence of 5% of CO2. The molecules, diluted in dimethyl sulphoxide (DMSO Sigma #D2650), are added from a 20-times concentrated stock solution, the final percentage of DMSO being 0.1%. The molecules are tested either at a single concentration of less than or equal to 10 μM, or at increasing concentrations in a range that can extend from less than 1 nM to 10 μM.
After this incubation, the cells are lysed for the preparation of the proteins. For this, after the culture medium has been drawn off, 50 μl of complete Tris Lysis Buffer of the MSD kit containing the protease and phosphatase inhibitor solutions are added to the wells and the cells are lysed for 1 h at 4° C. with shaking. At this stage, the plates containing the lysates can be stored at −20° C. or at −80° C.
The wells of the 96-well plates of the MSD kit are saturated for 1 h at ambient temperature with the blocking solution of the MSD kit. Four washes are carried out with 150 μl of Tris Wash Buffer of the MSD kit. The lysates previously prepared are transferred into the 96-well multi-spot plates of the MSD kit and incubated for 1 h at ambient temperature, with shaking. Four washes are carried out with 150 μl of Tris Wash Buffer of the MSD kit. 25 μl of the MSD sulfo-tag detection antibody solution are added to the wells and incubated for 1 h at ambient temperature, with shaking. Four washes are carried out with 150 μl of Tris Wash Buffer of the MSD kit. 150 μl of Read Buffer of the MSD kit are added to the wells and the plates are read immediately on the S12400 instrument from Meso Scale Discovery.
The instrument measures a signal for each well. Wells without cells and containing the lysis buffer serve to determine the background noise that will be subtracted from all the measurements (min). The wells containing cells in the absence of product and in the presence of 0.1% DMSO are considered to be the 100% signal (max). The percentage inhibition is calculated for each concentration of test product according to the following formula: (1-((test−min)/(max−min)))×100.
The activity of the product is translated to IC50, obtained from a dose-response curve of the various concentrations tested and representing the dose giving 50% specific inhibition (absolute IC50). 2 independent experiments make it possible to calculate the mean of the IC50 values.

[3] = test system: P. falciparum (highly chloroquine-resistant strain Fcm29-Cameroon); assay: Antimalarial activity test (radioactive micromethod of Desjardins, tritiated hypoxanthine incorporation); settings: Plasmodium falciparum, Erythrocyte, infected human erythrocytes, 48 h
Method: Antimalarial Activity Test
The antimalarial activity tests are carried out according to the radioactive micromethod of Desjardins (R. E. Desjardins, C. J. Canfield, J. D. Haynes, J. D. Chulay, Antimicrob. Agents Chemother., 1979, 16, 710-718). The assays are carried out in 96-well microplates (Test Plates Ref. 92696, Techno Plastic Products Ag, Zollstrasse 155, CH-8219 Trasadingen). The P. falciparum strains are cultured in solutions of RPMI 1640 supplemented with 5% of human serum with a haematocrit at 2% and a blood parasite concentration at 1.5%. For each assay, the parasites are incubated with selected concentrations of drugs for 48 h at 37° C. in a humid atmosphere and at 5% CO2. Artemisinin, artesunate and also chloroquine diphosphate are used as reference molecules. The first dilution of the drug is prepared at 1 mg/ml in dimethyl sulphoxide. The range of dilutions of the successive daughter solutions is also prepared in dimethyl sulphoxide. Each daughter dilution is subsequently diluted to 1/50 in RPMI 1640 supplemented with 5% of human serum, all the dilutions being carried out at 37° C. These dilutions are then added to the parasites in culture in the microplates. After addition of the drug, the parasites are in culture in RPMI 1640 containing 5% of human serum and 1% of dimethyl sulphoxide. The parasite growth is measured by incorporation of tritiated hypoxanthine (added 24 h after the beginning of the exposure to the drug) compared with the incorporation in the absence of drug.
The activity of the product is translated to % inhibition of the growth of P. falciparum (highly chloroquine-resistant strain Fcm29-Cameroon) at 1 μM and 0.1 μM in an in vitro test using infected human erythrocytes.

[4] = Homo sapiens, PC-3, P-AKT-S473, PC3 cells

Compound: CCC(c1ccccc1)N1c2nc(N3CCOCC3)cc(=O)n2C[C@@]1(C)C(F)(F)F (single isomer, unassigned) [Example 13, (S)-2-Methyl-7-morpholin-4-yl-1-((R) or (S)-1-phenylpropyl)-2-trifluoromethyl-2,3-dihydro-1H-imidazo[1,2-a]pyrimidin-5-one]
- IC50 ([1]; Homo sapiens, HeLa, 2 h): 822 nM

Compound: CC(c1cccc(F)c1)N1c2nc(N3CCOCC3)cc(=O)n2C[C@@]1(C)C(F)(F)F (single isomer, unassigned) [Example 22, (2S)-1-[(1R or 1S)-1-(3-Fluorophenyl)ethyl]-2-methyl-7-(morpholin-4-yl)-2-(trifluoromethyl)-2,3-dihydroimidazo[1,2-a]pyrimidin-5(1H)-one]
- IC50 ([1]; Homo sapiens, HeLa, 2 h): 872 nM
- IC50 [2, 4]: 59 nM

Compound: CC(c1ccccc1)N1c2nc(N3CCOCC3)cc(=O)n2C[C@@]1(C)C(F)(F)F (single isomer, unassigned) [Example 31, (2S)-2-Methyl-7-(morpholin-4-yl)-1-[(1R or 1S)-1-phenylethyl]-2-(trifluoromethyl)-2,3-dihydroimidazo[1,2-a]pyrimidin-5(1H)-one]
- IC50 ([1]; 2 hours): 334 nM
- IC50 ([2]; P-AKT-S473, PC3 cells): 60 nM

Compound: C[C@@]1(C(F)(F)F)Cn2c(nc(N3CCOCC3)cc2=O)N1CCSc1ccccc1 [Example 7, (S)-2-Methyl-7-morpholin-4-yl-1-(2-phenylsulfanylethyl)-2-trifluoromethyl-2,3-dihydro-1H-imidazo[1,2-a]pyrimidin-5-one]
- IC50 ([1]; Homo sapiens, HeLa, 2 h): 71 nM

Compound: C[C@H](CN1c2nc(N3CCOCC3)cc(=O)n2C[C@@]1(C)C(F)(F)F)c1ccccc1 [Example 9, (S)-2-Methyl-7-morpholin-4-yl-1-((S)-2-phenylpropyl)-2-trifluoromethyl-2,3-dihydro-1H-imidazo[1,2-a]pyrimidin-5-one]
- IC50 ([1]; Homo sapiens, HeLa, 2 h): 191 nM

Compound: C[C@@]1(C(F)(F)F)Cn2c(nc(N3CCOCC3)cc2=O)N1C[C@H](O)c1ccccc1 [Example 11]
- IC50 ([1]; Homo sapiens, HeLa, 2 h): 235 nM
- inhibition at 1 µM [3]: 13%

Compound: COc1ccc(CCN2c3nc(N4CCOCC4)cc(=O)n3CC2(C)C)cc1 [Example 17, 1-[2-(4-Methoxyphenyl)ethyl]-2,2-dimethyl-7-morpholin-4-yl-2,3-dihydro-1H-imidazo[1,2-a]pyrimidin-5-one]
- IC50 ([1]; Homo sapiens, HeLa, 2 h): 345 nM

Compound: COc1ccc(CCN2c3nc(N4CCOCC4)c(F)c(=O)n3C[C@@]2(C)C(F)(F)F)cc1 [Example 18, (2S)-6-Fluoro-1-[2-(4-methoxyphenyl)ethyl]-2-methyl-7-(morpholin-4-yl)-2-(trifluoromethyl)-2,3-dihydroimidazo[1,2-a]pyrimidin-5(1H)-one]
- IC50 ([1]; Homo sapiens, HeLa, 2 h): 39 nM

Compound: C[C@@]1(C(F)(F)F)Cn2c(nc(N3CCOCC3)cc2=O)N1C(=O)c1ccccc1Cl [Example 34, (2S)-1-[(2-chlorophenyl)carbonyl]-2-methyl-7-(morpholin-4-yl)-2-(trifluoromethyl)-2,3-dihydroimidazo[1,2-a]pyrimidin-5(1H)-one]
- IC50 [2, 4]: 159 nM

Compound: COc1cc(F)c(C(O)CN2c3nc(N4CCOCC4)cc(=O)n3C[C@@]2(C)C(F)(F)F)cc1OC (stereo partly drawn) [Example 39, (S)-1-[2-(2-fluoro-4,5-dimethoxyphenyl)-2-hydroxyethyl]-2-methyl-7-morpholin-4-yl-2-trifluoromethyl-2,3-dihydro-1H-imidazo[1,2-a]pyrimidin-5-one]
- inhibition at 0.1 µM [3]: 39%
- inhibition at 1 µM [3]: 85%

Compound: COc1ccccc1[C@H](O)CN1c2nc(N3CCOCC3)cc(=O)n2C[C@@]1(C)C(F)(F)F [Example 40, (S)-1-[(S)-2-hydroxy-2-(2-methoxyphenyl)ethyl]-2-methyl-7-morpholin-4-yl-2-trifluoromethyl-2,3-dihydro-1H-imidazo[1,2-a]pyrimidin-5-one]
- inhibition at 0.1 µM [3]: 20%
- inhibition at 1 µM [3]: 80%

Compound: COc1cc(Cl)ccc1[C@H](O)CN1c2nc(N3CCOCC3)cc(=O)n2C[C@@]1(C)C(F)(F)F [Example 41, (S)-1-[(S)-2-(4-chloro-2-methoxyphenyl)-2-hydroxyethyl]-2-methyl-7-morpholin-4-yl-2-trifluoromethyl-2,3-dihydro-1H-imidazo[1,2-a]pyrimidin-5-one]
- inhibition at 1 µM [3]: 78%

Compound: COc1cc(F)ccc1[C@H](O)CN1c2nc(N3CCOCC3)cc(=O)n2C[C@@]1(C)C(F)(F)F [Example 42, (S)-1-[(S)-2-(4-fluoro-2-methoxyphenyl)-2-hydroxyethyl]-2-methyl-7-morpholin-4-yl-2-trifluoromethyl-2,3-dihydro-1H-imidazo[1,2-a]pyrimidin-5-one]
- inhibition at 1 µM [3]: 78%

Compound: COc1ccc([C@H](O)CN2c3nc(N4CCOCC4)cc(=O)n3C[C@@]2(C)C(F)(F)F)c(Cl)c1 [Example 43, (S)-1-[(S)-2-(2-chloro-4-methoxyphenyl)-2-hydroxyethyl]-2-methyl-7-morpholin-4-yl-2-trifluoromethyl-2,3-dihydro-1H-imidazo[1,2-a]pyrimidin-5-one]
- inhibition at 0.1 µM [3]: 22%
- inhibition at 1 µM [3]: 74%

From patent publication US8828997B2, “2,3-dihydro-1H-imidazo(1,2-a)pyrimidin-5-one derivatives, preparation thereof, and pharmaceutical use thereof” (Sanofi, priority 2009, dated 2014)
